How the values were obtained:
TM4SF5 and PD-L1 = target: T1, TM4SF5 and PD-L1 (Homo sapiens, UniProt O14894); test: Pulldown: binding between TM4SF5 and PD-L1; assay type: cell-based; settings: 2.5 µM, 24 hours, SNU449 (FIG. 17c)
T1 construct: expressed in transfected cells; host or cells: SNU449 cells stably expressing TM4SF5, additionally transfected with PD-L1-HA cDNA
T1 sequence (O14894 1-197): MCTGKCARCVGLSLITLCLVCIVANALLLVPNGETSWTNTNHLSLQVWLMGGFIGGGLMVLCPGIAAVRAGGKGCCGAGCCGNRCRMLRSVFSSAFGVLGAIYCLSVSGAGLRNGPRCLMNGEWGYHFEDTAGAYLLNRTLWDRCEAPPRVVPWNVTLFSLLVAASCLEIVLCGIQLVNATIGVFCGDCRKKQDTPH
Experimental: Cells were cultured to ~60% density in a cell incubator at 37°C and 5% CO2, and then transfected using PEI and cultured in a cell incubator at 37°C for two days. After cultivation, cell extracts were obtained by the method described above. After precipitating a desired protein from the cell extracts using an immunoprecipitation method, the binding proteins were identified by the Western blot technique described above. Specifically, cells cultured in a 100 mm cell culture dish for two days were washed twice with PBS, and protease inhibitor cocktails (GenDepot, USA) were added to 500 µl of immunoprecipitation lysis buffer (0.5% Triton X-100 or Brij 58, 40 mM HEPES, 150 mM NaCl, 1 mM EDTA, pH 7.4), followed by treatment at 4°C for 15 minutes. After collecting the cells, centrifugation was performed at 12,000x g at 4°C for 15 minutes, and the supernatant was transferred to a new microcentrifuge tube to obtain a cell extract. Proteins therein were quantified using a BCA reagent (Thermo Scientifics, USA). An electrophoresis sample was prepared by adding 4x laemmli sample buffer to a portion of the quantified sample and boiling at 100°C for 5 minutes. For immunoprecipitation, Streptavidin Agarose Resin (Thermo Fisher Scientific) or anti-HA antibody-coated Sepharose beads were added in proportion to the quantified protein amount, followed by rotation at 4°C for 4 hours, and then centrifugation was performed at 7,000x g at 4°C for 5 minutes and the supernatant was discarded. […]
(a-b) The same number of SNU449-EV or SNU449-TM4SF5 cells were transferred to culture vessels and cultured overnight. […] From the cell extracts, Strep-TM4SF5 was pulled down with strep-agarose beads, and then Western blotting was performed using antibodies against the indicated proteins, or the intracellular localization and expression level of TM4SF5 (red fluorescence) and PD-L1 (green fluorescence) were confirmed with a fluorescence microscope through immunostaining along with DNA staining using DAPI.

[1] = test system: TM4SF5-expressing cells (SNU449T7); test: Subcutaneous xenograft model of TM4SF5-expressing liver cancer cell line; assay type: in vivo, BALB/c-Nude mice; settings: for tumor volume / liver cancer formation inhibitory effect: 5 mg/kg IP every 3 days, 8 times; for tumor volume: vs vehicle (FIG. 11c); for liver cancer formation inhibitory effect: images of recovered cancer tissues (FIG. 11b); for expressions of factors related to fibrosis, inflammation-related cytokines/chemokines (CCL2, CCL5, or CCL20), and AFP: cancer tissues vs vehicle (FIG. 11e); for phosphorylation of FAK, STAT3, c-Src, Akt and p27: liver cancer tissue extracts, three days after last injection (FIG. 11d)
Experimental: The next day, the cells were detached by treating with a T/E (Trypsin/EDTA) solution and centrifuged at 150x g for 3 minutes to obtain a pellet. Thereafter, the supernatant was removed, and the pellet was prepared by resuspension in phosphate buffered saline (PBS). For the generation of liver cancer, 10^7 cells/100 µl were injected once subcutaneously into the right thigh area of 8-week-old male BALB/c-Nude mice. At this time, the animals were anesthetized by inhalation with […] and injected. From the 7th day after the cell injection, drugs ST-2-001, ST-3-006, and ST-3-011 were each intraperitoneally injected at 5 mg/kg of body weight for a total of 8 times every 3 days. The body weight of the animals was measured every week from the day of cell injection, and the tumor volume was measured every 3 days from the 7th day after the cell injection. The tumor volume was calculated as (length×width×width)/2 (mm^3) by measuring the length and width of the tumor. Finally, on the 31st day after the cell injection, the animals were sacrificed by a standard method, and liver tissues were obtained to analyze the liver cancer tissues.
Eight-week-old male BALB/c-Nude mice (n=8, Orient, Seongnam, Republic of Korea) were allowed free access to a normal diet, and TM4SF5-non-expressing cells (SNU449Cp) and TM4SF5-expressing cells (SNU449T7) were injected once subcutaneously at a dose of 10^7 cells per mouse. Starting from the 7th day after the cell injection, drug ST-2-001, ST-3-006, or ST-3-011 was intraperitoneally injected at 5 mg/kg of body weight every 3 days for a total of 8 times. Body weight and tumor volume were measured every week, and on the 31st day after the cell injection, the mice were anesthetized by a standard method, liver tissues were obtained, and the size of the liver cancer tissues was photographed. Thereafter, the tissues were randomly divided into several sets and analyzed by immunohistochemistry, Western blot, qRT-PCR, etc.

Row | SMILES | binding between TM4SF5 and PD-L1 (TM4SF5 and PD-L1) | tumor volume [1] | liver cancer formation inhibitory effect [1] | expressions of factors related to fibrosis, inflammation-related cytokines/chemokines (CCL2, CCL5, or CCL20), and AFP [1] | phosphorylation of FAK, STAT3, c-Src, Akt and p27 [1]
1 | Cc1ccc(S(=O)(=O)Nc2ccc(C(=O)/C=C/c3ccc(O)cc3)cc2)cc1 [TSAHC, 4'-(p-toluenesulfonylamino)-4-hydroxychalcone, reference compound] | inhibition | – | – | – | –
2 | CC(=O)Nc1ccc(-c2cc(-c3ccc(O)cc3)no2)cc1 [ST-5-001, N-(4-(3-(4-hydroxyphenyl)isoxazole-5-yl)phenyl)acetamide] | decreased and inhibited | – | – | – | –
3 | CC(=O)Nc1ccc(-c2cc(-c3ccc(F)cc3)on2)cc1 [ST-3-006, N-(4-(5-(4-fluorophenyl)isoxazole-3-yl)phenyl)acetamide] | – | statistically significantly inhibited | relatively less than those of ST-2-001 | decreased | significantly inhibited
4 | COc1ccc(-c2cc(-c3ccc(NC(C)=O)cc3)no2)cc1 [ST-2-001, N-(4-(5-(4-methoxyphenyl)isoxazole-3-yl)phenyl)acetamide] | – | statistically significantly inhibited | the greatest | decreased | significantly inhibited
5 | COc1ccc(-c2cc(-c3cccc(NC(C)=O)c3)no2)cc1 [ST-3-011, N-(3-(5-(4-methoxyphenyl)isoxazole-3-yl)phenyl)acetamide] | – | statistically significantly inhibited | relatively less than those of ST-2-001 | decreased | significantly inhibited
6 | Cc1ccc(C(=O)Nc2ccc(-c3cc(-c4ccc(O)cc4)no3)cc2)cc1 [ST-5-002, N-(4-(3-(4-hydroxyphenyl)isoxazole-5-yl)phenyl)-4-methylbenzamide] | decreased and inhibited | – | – | – | –

From patent EP4772500A1, “NOVEL ISOXAZOLE COMPOUND AS TM4SF5-SPECIFIC INHIBITOR AND USE THEREOF” (Seoul National University R&DB Foundation, priority 2023, dated 2025)
